Measurements taken from US20080312287A1, “Compound and Methods For the Treatment of Cancer and Malaria” (University of Washington, priority 2005, published 2008).
Like-named read-outs stand apart in the source and are kept apart here.

Key:
PfPFT = target: T1, PfPFT (Plasmodium falciparum, UniProt Q8I503+Q8IHP6); assay: PfPFT inhibition, scintillation proximity assay with partially purified PfPFT; type: biochemical; conditions: for inhibition at 0.005 µM: read-out: % Inhibition of PfPFT at 5 nM, inhibitor at 5 nM; for inhibition at 0.05 µM: read-out: % Inhibition of PfPFT at 50 nM, inhibitor at 50 nM; for Selectivity: ratio of rat to Plasmodium PFT activity; for % Inhibition of PfPFT at 5 nM: inhibitor at 5 nM; for % Inhibition of PfPFT at 50 nM: inhibitor at 50 nM
T1 sequence (Q8I503 1-521): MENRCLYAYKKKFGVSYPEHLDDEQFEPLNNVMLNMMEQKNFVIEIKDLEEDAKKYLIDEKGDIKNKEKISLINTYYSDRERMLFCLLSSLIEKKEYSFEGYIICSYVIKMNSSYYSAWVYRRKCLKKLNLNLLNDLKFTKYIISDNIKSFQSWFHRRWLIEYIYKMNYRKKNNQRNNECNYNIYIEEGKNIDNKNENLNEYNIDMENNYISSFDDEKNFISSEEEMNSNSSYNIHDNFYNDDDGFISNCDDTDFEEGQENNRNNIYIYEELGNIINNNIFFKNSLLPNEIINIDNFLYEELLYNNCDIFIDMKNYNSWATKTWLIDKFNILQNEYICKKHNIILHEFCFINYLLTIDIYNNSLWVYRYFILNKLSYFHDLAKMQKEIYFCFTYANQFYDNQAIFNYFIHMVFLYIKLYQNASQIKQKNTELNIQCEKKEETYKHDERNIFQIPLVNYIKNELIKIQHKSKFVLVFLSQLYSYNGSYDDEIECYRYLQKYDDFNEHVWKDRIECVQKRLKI
T1 sequence (Q8IHP6 1-923): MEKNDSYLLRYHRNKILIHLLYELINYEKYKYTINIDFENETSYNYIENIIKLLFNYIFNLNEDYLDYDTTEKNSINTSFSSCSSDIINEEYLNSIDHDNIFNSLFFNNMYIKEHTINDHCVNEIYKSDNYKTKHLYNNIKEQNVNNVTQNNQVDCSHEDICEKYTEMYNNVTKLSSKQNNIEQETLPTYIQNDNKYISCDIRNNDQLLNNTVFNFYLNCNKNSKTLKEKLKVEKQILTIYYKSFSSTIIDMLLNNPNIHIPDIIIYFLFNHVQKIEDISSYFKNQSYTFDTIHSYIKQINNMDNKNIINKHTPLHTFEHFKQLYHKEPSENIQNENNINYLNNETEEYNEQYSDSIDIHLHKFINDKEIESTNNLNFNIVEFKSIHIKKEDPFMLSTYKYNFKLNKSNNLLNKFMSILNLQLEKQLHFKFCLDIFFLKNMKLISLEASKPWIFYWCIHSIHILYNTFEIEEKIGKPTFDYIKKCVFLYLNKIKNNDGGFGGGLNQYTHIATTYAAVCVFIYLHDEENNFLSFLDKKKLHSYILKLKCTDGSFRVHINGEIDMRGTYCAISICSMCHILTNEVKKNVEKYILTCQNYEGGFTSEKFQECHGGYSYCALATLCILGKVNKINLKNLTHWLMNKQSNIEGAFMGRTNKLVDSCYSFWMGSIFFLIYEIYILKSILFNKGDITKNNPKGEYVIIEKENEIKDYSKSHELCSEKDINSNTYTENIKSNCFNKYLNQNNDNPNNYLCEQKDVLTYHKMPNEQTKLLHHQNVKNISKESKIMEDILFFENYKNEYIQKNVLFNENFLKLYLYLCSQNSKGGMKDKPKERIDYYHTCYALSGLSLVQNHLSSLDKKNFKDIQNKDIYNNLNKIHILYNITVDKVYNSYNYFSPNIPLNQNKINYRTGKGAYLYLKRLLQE

Rat FTase = Rat FTase (Rattus norvegicus, UniProt Q02293+Q04631); assay: Rat farnesyltransferase IC50 determination; type: biochemical; conditions: concentration decreasing transferase activity twofold
P. falciparum 3D7 = assay: P. falciparum ED50 determination, [3H]-hypoxanthine incorporation, strain 3D7; type: cell-based, Plasmodium falciparum
Description: (§1) Plasmodium strains. The P. falciparum strains used in this study were 3D7 (Netherlands, sensitive) provided by Dr. Pradipsinh Rathod from the University of Washington and K1 (Thailand, ChQ-R, Pyr-R) obtained from the MR4Unit of the American Type Culture Collection (ATCC, Manassas, Va.).
(§2) P. falciparum culture. Strains of P. falciparum were sustained in vitro based on experimental techniques as described by Trager and Jensen.^26 Cultures were maintained in RPMI-1640 (Sigma, St. Louis, […].) with 2 mM L-glutamine, 25 mM HEPES, 33 mM NaHCO3, 20 μg/ml gentamicin sulfate and 20% (v/v) heat-inactivated human plasma type A+ (R^P-20P). Type A+ erythrocytes were obtained from lab donors, washed three times with RPMI, re-suspended in 50% RPMI, and stored at 4° C. Parasites were grown in 10 mL of a 2% hematocrit/RP-20P (v/v) in 50-mL flasks under a 5% CO2, 5% O2, and 90% N2 atmosphere.
(§3) P. falciparum ED50 determination. One […]L of PFTI dissolved in DMSO was added to each well of a 96-well plate followed by the addition of 200 μL of P. falciparum culture at parasitemia and hematocrit of 0.5%. Plates were flushed with 5% CO2, 5% O2, and 90% N2 then incubated at 37° C. for 48 hr. [8-^3H]-hypoxanthine (0.3 μCi, 20 Ci/mmol, American Radiolabeled Chemicals) in 30 μL RP-20P was added to cultures and incubated for an additional 24 hours. Cells were harvested onto filter mats by a Multiharvester (Skatron, Sunnyvale, Calif.) and the radioactivity incorporated into the parasites was counted on a β-scintillation counter. The background level detected with uninfected erythrocytes was subtracted from the data. The ^3H-incorporation into infected RBCs with 1 μL DMSO vehicle alone represents 100% malaria growth. ED50 values were determined by linear regression analysis of the plots of ^3H-hypoxanthine incorporation versus concentration of compound.

P. falciparum K1 = assay: P. falciparum ED50 determination, [3H]-hypoxanthine incorporation, strain K1; type: cell-based, Plasmodium falciparum
Description: as §1, §2, §3

[1] = Plasmodium falciparum, 3D7, strain 3D7, concentration decreasing hypoxanthine incorporation into parasites twofold, read-out: ED50 3D7
[2] = Plasmodium falciparum, K1, strain K1, concentration decreasing hypoxanthine incorporation into parasites twofold, read-out: ED50 K1
[3] = strain 3D7, concentration decreasing hypoxanthine incorporation into parasites twofold, read-out: ED50 3D7
[4] = strain K1, concentration decreasing hypoxanthine incorporation into parasites twofold, read-out: ED50 K1

SMILES	inhibition at 0.005 µM (PfPFT)	inhibition at 0.05 µM (PfPFT)	EC50 (P. falciparum 3D7; [1])	EC50 (P. falciparum K1; [2])	other results
Cn1cnc(S(=O)(=O)N(CCN(Cc2cncn2C)c2ccc(Br)cc2)Cc2ccccc2)c1 [Compound 8b, 1-Methyl-1H-imidazole-4-sulfonic acid benzyl-{2-[(4-bromo-phenyl)-(3-methyl-3H-imidazol-4-ylmethyl)-amino]-ethyl}-amide]	86%	95%	675 nM	3200 nM	IC50 (Rat FTase): 290 nM
Cn1cncc1CN(CCN(Cc1ccccc1)S(=O)(=O)c1ccccc1)c1ccc(C#N)cc1 [Compound 8e, N-Benzyl-N-{2-[(4-cyano-phenyl)-(3-methyl-3H-imidazol-4-ylmethyl)-amino]-ethyl}-benzenesulfonamide]	18%	69%	2500 nM	2250 nM	Selectivity (PfPFT): 1.5; IC50 (Rat FTase): 13 nM
CN(C)c1cccc2c(S(=O)(=O)N(CCN(Cc3cncn3C)c3ccc(C#N)cc3)Cc3ccccc3)cccc12 [Compound 8i, 5-Dimethylamino-naphthalene-1-sulfonic acid benzyl-{2-[(4-cyano-phenyl)-(3-methyl-3H-imidazol-4-ylmethyl)-amino]-ethyl}-amide]	6%	29%	300 nM	388 nM	Selectivity (PfPFT): 3.3; IC50 (Rat FTase): 180 nM
Cn1cnc(S(=O)(=O)N(CCN(Cc2cncn2C)c2ccc(Br)cc2)Cc2ccccn2)c1 [Compound 13, 1-Methyl-1H-imidazole-4-sulfonic acid {2-[(4-bromo-phenyl)-(3-methyl-3H-imidazol-4-ylmethyl)-amino]-ethyl}-pyridin-2-ylmethyl-amide]	–	–	–	–	IC50 (Rat FTase): 83 nM
C=CCN(CCN(Cc1cncn1C)c1ccc(C#N)cc1)S(=O)(=O)c1cn(C)cn1 [Compound 8l, 1-Methyl-1H-imidazole-4-sulfonic acid allyl-{2-[(4-cyano-phenyl)-(3-methyl-3H-imidazol-4-ylmethyl)-amino]-ethyl}-amide]	1%	42%	> 5000 nM	> 5000 nM	–
Cn1cnc(S(=O)(=O)N(CCN(Cc2cncn2C)c2ccc(C#N)cc2)CC2CCNCC2)c1 [Compound 8s, 1-Methyl-1H-imidazole-4-sulfonic acid {2-[(4-cyano-phenyl)-(3-methyl-3H-imidazol-4-ylmethyl)-amino]-ethyl}-piperidin-4-ylmethyl-amide]	5%	5%	> 5000 nM	> 5000 nM	activity in words (PfPFT; SAR discussion of Table 4): inactive
C=C(C)CN(CCN(Cc1cncn1C)c1ccc(C#N)cc1)S(=O)(=O)c1cn(C)cn1 [Compound 8m, 1-Methyl-1H-imidazole-4-sulfonic acid {2-[(4-cyano-phenyl)-(3-methyl-3H-imidazol-4-ylmethyl)-amino]-ethyl}-(2-methyl-allyl)-amide]	6%	77%	> 5000 nM	> 5000 nM	–
Cn1cnc(S(=O)(=O)N(CCN(Cc2cncn2C)c2ccc(C#N)cc2)Cc2ccc(-n3cccc3)cc2)c1 [Compound 8ai, 1-Methyl-1H-imidazole-4-sulfonic acid {2-[(4-cyano-phenyl)-(3-methyl-3H-imidazol-4-ylmethyl)-amino]-ethyl}-(4-pyrrol-1-yl-benzyl)-amide]	39%	85%	257 nM	410 nM	IC50 (PfPFT; concentration decreasing transferase activity twofold): 11 nM
CC(=O)N(CCN(Cc1cncn1C)c1ccc(C#N)cc1)Cc1ccccc1 [Compound 8j, N-Benzyl-N-{2-[(4-cyano-phenyl)-(3-methyl-3H-imidazol-4-ylmethyl)-amino]-ethyl}-acetamide]	0%	56%	–	–	EC50 (P. falciparum 3D7; Plasmodium falciparum, 3D7, read-out: ED50 3D7): 2500 nM; EC50 (P. falciparum K1; Plasmodium falciparum, K1, read-out: ED50 K1): > 5000 nM
Cn1cncc1CN(CCN(Cc1ccccc1)S(=O)(=O)c1cccc2cccnc12)c1ccc(C#N)cc1 [Compound 8h, Quinoline-8-sulfonic acid benzyl-{2-[(4-cyano-phenyl)-(3-methyl-3H-imidazol-4-ylmethyl)-amino]-ethyl}-amide]	14%	35%	2100 nM	2400 nM	–
Cc1cccc(CN(CCN(Cc2cncn2C)c2ccc(C#N)cc2)S(=O)(=O)c2cn(C)cn2)c1 [Compound 8y, 1-Methyl-1H-imidazole-4-sulfonic acid {2-[(4-cyano-phenyl)-(3-methyl-3H-imidazol-4-ylmethyl)-amino]-ethyl}-(3-methyl-benzyl)-amidem-toluene]	–	–	–	–	% Inhibition of PfPFT at 5 nM (PfPFT): 61%; % Inhibition of PfPFT at 50 nM (PfPFT): 94%; EC50 (P. falciparum 3D7; [3]): 300 nM; EC50 (P. falciparum K1; [4]): 1000 nM
Cn1cnc(S(=O)(=O)N(CCN(Cc2cncn2C)c2ccc(C#N)cc2)CCn2cccc2)c1 [Compound 8p, 1-Methyl-1H-imidazole-4-sulfonic acid {2-[(4-cyano-phenyl)-(3-methyl-3H-imidazol-4-ylmethyl)-amino]-ethyl}-(2-pyrrol-1-yl-ethyl)-amide]	11%	56%	> 5000 nM	> 5000 nM	–
C=C(Br)CN(CCN(Cc1cncn1C)c1ccc(C#N)cc1)S(=O)(=O)c1cn(C)cn1 [Compound 8n, 1-Methyl-1H-imidazole-4-sulfonic acid (2-bromo-allyl)-{2-[(4-cyano-phenyl)-(3-methyl-3H-imidazol-4-ylmethyl)-amino]-ethyl}-amide]	25%	80%	> 5000 nM	> 5000 nM	–
Cn1cnc(S(=O)(=O)N(CCN(Cc2cncn2C)c2ccc(C#N)cc2)Cc2cccc(C#N)c2)c1 [Compound 8ad, 1-Methyl-1H-imidazole-4-sulfonic acid (3-cyano-benzyl)-{2-[(4-cyano-phenyl)-(3-methyl-3H-imidazol-4-ylmethyl)-amino]-ethyl}-amidem-cyanobenzyl]	–	–	–	–	% Inhibition of PfPFT at 5 nM (PfPFT): 45%; % Inhibition of PfPFT at 50 nM (PfPFT): 89%; EC50 (P. falciparum 3D7; [3]): 350 nM; EC50 (P. falciparum K1; [4]): 1800 nM
